# According to patent US20250312499A1, “KISSPEPTIN RECEPTOR (KISS1R) TARGETED THERAPEUTICS AND USES THEREOF” (priority 2024, published 2025):
# Numbered stars: 1 amine (or outer) side, 2 acyl side, 3 side chain; on linkers, the order of the positions; unused ones are H or OH. Square brackets hold non-standard residues; d marks the D form. Peptide text beside a SMILES is read from it. * marks the point of attachment. DOTA = O=C(O)CN1CCN(CC(=O)O)CCN(CC(=O)*)CCN(CC(=O)O)CC1; Gly(N-(3-F-4-Me-benzyl)) = Cc1ccc(CNCC(=O)*)cc1F; Api(1-amidino) = N=C(N)N1CCC(N)(C(=O)O)CC1; Hydrocinnamoyl(4-Me) = Cc1ccc(CCC(=O)*)cc1; Phe(4-CN) = N#Cc1ccc(C[C@H](N)C(=O)O)cc1; Phe(3-F) = N[C@@H](Cc1cccc(F)c1)C(=O)O; Phe(4-I) = N[C@@H](Cc1ccc(I)cc1)C(=O)O; X1 = O=C(CN1CCC(N[*:1])CC1)[*:2]; 4Pal = N[C@@H](Cc1ccncc1)C(=O)O; Api = NC1(C(=O)O)CCNCC1; PEG2 = NCCOCCOCCC(=O)O; Ahx = NCCCCCC(=O)O; azaGly = NNC(=O)O; βAla = NCCC(=O)O
# Target: human kisspeptin receptor (Homo sapiens (Human), UniProt Q969F8)
# Sequence (Q969F8 whole entry): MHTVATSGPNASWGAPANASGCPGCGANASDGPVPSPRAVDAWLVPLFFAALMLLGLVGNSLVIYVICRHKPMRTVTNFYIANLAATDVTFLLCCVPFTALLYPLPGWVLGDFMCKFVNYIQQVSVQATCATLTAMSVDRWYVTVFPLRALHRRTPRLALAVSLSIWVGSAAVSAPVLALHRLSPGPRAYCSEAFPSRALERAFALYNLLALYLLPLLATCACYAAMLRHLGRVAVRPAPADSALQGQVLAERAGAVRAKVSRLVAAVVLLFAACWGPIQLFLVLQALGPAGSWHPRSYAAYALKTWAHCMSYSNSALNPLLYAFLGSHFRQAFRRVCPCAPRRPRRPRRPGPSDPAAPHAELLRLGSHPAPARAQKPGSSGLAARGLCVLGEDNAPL
# Test: Human KISS1R binding assay (membrane competition binding)
# Settings: 90 min at room temperature; competition with 0.2 nM [125I]-metastin (45-54); Flp-In T-Rex 293 kisspeptin membranes; metal complexes nonradioactive Ga, In, Lu; read-out: hKiSSR Binding Ki (90 min)
# Procedure, shortened: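 Membranes from tetracycline-induced (48 h) Flp-In T-Rex 293 cells expressing receptor, 5–10 μg, incubated 90 min at room temperature with 0.2 nM [125I]-metastin (45-54) and competitor (typically 0–10,000 nM) in Tris/Mg/Ca/EGTA/0.1% BSA, pH 7.4. Filtration, washing, counting; Ki by non-linear regression.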
row,Structure (SMILES),Ki [nM]
1,Cc1ccc(CCC(=O)NCCOCCOCCC(=O)N[C@H](Cc2ccc(O)cc2)C(=O)N[C@@H](CCCCNC(=O)CN2CCN(CC(=O)O)CCN(CC(=O)O)CCN(CC(=O)O)CC2)C(=O)N[C@@H](CC(N)=O)C(=O)N[C@H](C(=O)N[C@@H](Cc2ccccc2)C(=O)NNC(=O)N[C@@H](CC(C)C)C(=O)NC2(C(=O)N[C@@H](Cc3ccc(C#N)cc3)C(N)=O)CCN(C(=N)N)CC2)[C@@H](C)O)cc1 [Compound 333] ({Hydrocinnamoyl(4-Me)-PEG2}-[dY]K(DOTA)NTF[azaGly]L[Api(1-amidino)][Phe(4-CN)]-NH2),< 10
2,Cc1ccc(CNCC(=O)N2CCC(NC(=O)[C@H](CC(C)C)NC(=O)NNC(=O)[C@H](Cc3ccccc3)NC(=O)CN3CCC(NC(=O)CN4CCN(CC(=O)O)CCN(CC(=O)O)CCN(CC(=O)O)CC4)CC3)(C(=O)N[C@@H](Cc3ccc(C#N)cc3)C(N)=O)CC2)cc1F [Compound 244] ({DOTA}-[X1]F[azaGly]L[Api](Gly(N-(3-F-4-Me-benzyl)))[Phe(4-CN)]-NH2),< 10
3,CC(C)C[C@H](NC(=O)NNC(=O)[C@H](Cc1ccc(I)cc1)NC(=O)[C@@H](NC(=O)[C@H](CC(N)=O)NC(=O)[C@H](Cc1ccc(I)cc1)NC(=O)[C@@H](Cc1ccc(O)cc1)NC(=O)CN1CCN(CC(=O)O)CCN(CC(=O)O)CCN(CC(=O)O)CC1)[C@@H](C)O)C(=O)NC1(C(=O)N[C@@H](Cc2ccncc2)C(N)=O)CCN(C(=N)N)CC1 [Compound 121] ({DOTA}-[dY][Phe(4-I)]NT[Phe(4-I)][azaGly]L[Api(1-amidino)][4Pal]-NH2),10 to 100

# Now from value to compound:
row,Ki [nM],Structure (SMILES)
1,< 10,Cc1ccc(CCC(=O)NCCOCCOCCC(=O)N[C@H](Cc2ccc(O)cc2)C(=O)N[C@H](CCCCNC(=O)CN2CCN(CC(=O)O)CCN(CC(=O)O)CCN(CC(=O)O)CC2)C(=O)N[C@@H](CC(N)=O)C(=O)N[C@H](C(=O)N[C@@H](Cc2ccccc2)C(=O)NNC(=O)N[C@@H](CC(C)C)C(=O)NC2(C(=O)N[C@@H](Cc3c[nH]c4ccccc34)C(N)=O)CCN(C(=N)N)CC2)[C@@H](C)O)cc1 [Compound 338] ({Hydrocinnamoyl(4-Me)-PEG2}-[dY][dK](DOTA)NTF[azaGly]L[Api(1-amidino)]W-NH2)
2,< 10,Cc1ccc(CNCC(=O)N2CCC(NC(=O)[C@H](CC(C)C)NC(=O)NNC(=O)[C@H](Cc3cccc(F)c3)NC(=O)[C@@H](NC(=O)[C@H](CC(N)=O)NC(=O)[C@H](CCC(=O)O)NC(=O)[C@@H](Cc3ccc(O)cc3)NC(=O)CN3CCC(NC(=O)CN4CCN(CC(=O)O)CCN(CC(=O)O)CCN(CC(=O)O)CC4)CC3)[C@@H](C)O)(C(=O)N[C@@H](Cc3c[nH]c4ccccc34)C(N)=O)CC2)cc1F [Compound 24] ({DOTA}-[X1][dY]ENT[Phe(3-F)][azaGly]L[Api](Gly(N-(3-F-4-Me-benzyl)))W-NH2)
3,< 10,Cc1ccc(CNCC(=O)N2CCC(NC(=O)[C@H](CC(C)C)NC(=O)NNC(=O)[C@H](Cc3ccccc3)NC(=O)[C@@H](NC(=O)[C@H](CC(N)=O)NC(=O)[C@@H](Cc3c[nH]c4ccccc34)NC(=O)[C@@H](Cc3ccc(O)cc3)NC(=O)CCCCCNC(=O)CN3CCN(CC(=O)O)CCN(CC(=O)O)CCN(CC(=O)O)CC3)[C@@H](C)O)(C(=O)N[C@@H](Cc3ccncc3)C(N)=O)CC2)cc1F [Compound 105] ({DOTA-Ahx}-[dY][dW]NTF[azaGly]L[Api](Gly(N-(3-F-4-Me-benzyl)))[4Pal]-NH2)
4,> 100,Cc1ccc(CNCC(=O)N2CCC(NC(=O)[C@H](CC(C)C)NC(=O)NNC(=O)[C@H](Cc3ccccc3)NC(=O)[C@@H](CC(N)=O)NC(=O)[C@@H](CCC(=O)O)NC(=O)[C@@H](CCCCN)NC(=O)[C@@H](CC(N)=O)NC(=O)[C@@H](CC(N)=O)NC(=O)CCNC(=O)CN3CCN(CC(=O)O)CCN(CC(=O)O)CCN(CC(=O)O)CC3)(C(=O)N[C@@H](Cc3c[nH]c4ccccc34)C(N)=O)CC2)cc1F [Compound 16] ({DOTA-βAla}-[dN][dN][dK][dE][dN]F[azaGly]L[Api](Gly(N-(3-F-4-Me-benzyl)))W-NH2)
